Source: patent US6476018B1, “Fused imidazole derivatives as multidrug resistance modulators” (Janssen Pharmaceutica N.V., priority 1996, dated 2002)

Test system: P388/ADR (adriamycine resistance cell line) murine leukemia
Experiment: MDR in vivo test: reversal of adriamycine resistance in P388/ADR murine leukemia (survival)
Conditions: P388/ADR mice, daily i.p. day 1-10
Procedure: Male B6D2F1 mice (18-21 g) were injected intraperitoneally with 1×10^5 P388/ADR cells at day 0. Daily intraperitoneal treatment with adriamycine, a test compound of formula (I) or a combination of both was installed from day 1 until day 10. Control animals received the vehicle (15% 4-OH-propyl-β-cyclodextrine in saline). Each group consisted of 8 animals. Adriamycine was dosed at a concentration of 1.25 mg/kg body weight, half the maximal tolerable dose of adriamycine in this treatment schedule. The test compound was dosed at 20, 10, 5, 2.5, 1.25 and 0.63 mg/kg either as single treatment or combined with adriamycine.
Survival of the animals was recorded each day and expressed as a percentage of the median survival in the treated groups compared to the median survival in the control group, the latter to be said to be 100%.
Table C-1 lists the effect of compound 6 and adriamycine on the survival of mice injected with P388/ADR leukemia.
doses of compound 6 and adriamycine are expressed as mg/kg body weight.
the column “Survival Days” give the median day of death after inoculation of 1×10^5 P388/ADR cells at day 0, with the minimum and maximum number of days shown in parantheses
column “% Change vs. ADR” give the difference in MST % of the different groups compared to the MST % in the adriamycine-monotherapy group.

SMILES | Survival Days med (min-max) (compound 6 0 mg/kg, adriamycine 1.25 mg/kg) | Survival Days med (min-max) (compound 6 5 mg/kg, adriamycine 0 mg/kg) | MST % (compound 6 20 mg/kg, adriamycine 0 mg/kg, control = 100%)
COc1cccc2c1C(=O)c1c(O)c3c(c(O)c1C2=O)C[C@@](O)(C(=O)CO)C[C@@H]3O[C@H]1C[C@H](N)[C@H](O)[C@H](C)O1 [Adriamycine, adriamycine, reference compound] | 13 (12-15) days | – | –
COC(=O)c1cnc2n1CCc1ccccc1C2=C1CCN(CCc2ccc(OCc3ccc4ccccc4n3)cc2)CC1 [Compound 6, methyl 6,11-dihydro-11-[1-[2-[4-(2-quinolinylmethoxy)phenyl]ethyl]-4-piperidinylidene]-5H-imidazo[2,1-b][3]-benzazepine-3-carboxylate] | – | 11.5 (10-13) days | 1oo
